A short description of data set [1]: Comparative solubility tests in water (10% aqueous dispersion mixed, filtered, dicyclanil determined in the filtrate by HPLC). The format is physicochemical. The settings on record: laboratory mixer, 20 °C. How it is done: To document the unexpectedly low water solubility of the present salt, i.e. dicyclanil dodecylbenzenesulfonate, comparative solubility tests were carried out after 4 and 24 hours of mixing of 10% aqueous dispersion of the present salt, as well as free dicyclanil alone, in a laboratory mixer at 20 °C, after which the sample was filtered and the free/bound dicyclanil was determined in a filtrate by a HPLC method.

The conditions of data set [2]: cited from earlier work.

A value given as a limit tells only on which side of the number the result lay.

Regarding “4,6-diamino-2-cyclopropylaminopyrimidine-5-carbonitrile dodecylbenzenesulfonate”, in data set [1], the “Solubility in water after 4 h of mixing” value is recorded as 0.0490%. Moreover, the “Solubility in water after 24 h of mixing” value in data set [1] (24 h) was 0.0495%.
Turning to `CS(=O)(=O)O.N#Cc1c(N)nc(NC2CC2)nc1N` [salt with methanesulfonic acid], the solubility in data set [2] (in water, known dicyclanil salt) is reported as greater than 5%.
Regarding `N#Cc1c(N)nc(NC2CC2)nc1N` [Technical dicyclanil TC 99.0%, 4,6-diamino-2-cyolopropylaminopyrimidine-5-carbonitrile], in data set [1], the “Solubility in water after 4 h of mixing” value came out at 0.312%. The solubility in water result in data set [2] (at 20 °C) is on record as “approximately 0.3 % by weight”.

These data come from patent publication EP3852878B1, “DICYCLANIL SALT WITH DODECYLBENZENESULFONATE AND USE OF SUCH A SALT IN COMBATING PARASITES” (ICB Pharma Spólka Jawna, priority 2018, dated 2020).
